How the values were obtained:
HAEC aging / senescence = experiment: Senescence-associated β-galactosidase staining; assay type: cell-based, human
Method: Low and high passage number (which reflects young and aged) endothelial cells (HAEC) cells were treated with various concentrations of H2O2 (50-500 μM)) for 8 h. Cells were washed in PBS, fixed for […] (room temperature) in 2% formaldehyde/0.2% glutaraldehyde, washed, and incubated at 37° C. with fresh senescence associated β-Gal (SA-,β-Gal) stain solution: 1 mg of 5-bromo-4-chloro-3-indolyl β-D-galactoside (X-Gal) per ml (stock=20 mg of dimethylformamide per ml)/40 mM citric acid/sodium phosphate, pH 6.0; 5 mM potassium ferrocyanide/5 mM potassium ferricyanide/150 mM NaCl/2 mM MgCl2. Staining was visualized after 24 h using a phase contrast microscope.
To study if Mti-Esc influences vascular aging; we have studied its effect on human aortic endothelial cell (HAEC) aging. For this, we used HAEC of different passages (representing different age) from P6 (young age) to P16 (old age). Also we have grown HAEC with Mito-Esc (2.5 μM) for six generations (six passages) to understand its chronic effects in regulating endothelial cell aging phenomenon.

[1] = system: caspase-3 and -8 activation in HAEC; experiment: Caspase-3 and -8 activity in HAEC lysates; assay type: cell-based, human; settings: 2.5 μM pretreatment
Method: HAEC were washed twice with cold DPBS and lysed in buffer containing 10-mM Tris-HCl, 10-mM NaH2PO4/Na2HPO4 (pH, 7.5). 130-mM NaCl. 1% Triton, and 10-mM sodium pyrophosphate. Cell lysates were incubated with either with caspase-3 fluorogenic substrate (N-acetyl-Asp-Glu-Val-Asp-7-amido-4-methylcoumarin) or caspase-8 fluorogenic substrate (N-acetyl-Ileu-Glu-Thr-Asp-7 amido-4-methylcoumarin) at 37° C. for 1 h. The 7-amido-4-methyl-coumarin liberated was measured in a multi mode reader (PerkinElmer) with λex=380 nm and λem=460 nm.

[2] = system: Ang-II-induced H2O2 production in HAEC; experiment: H2O2 levels by Amplex red assay; assay type: cell-based, human; settings: Ang-II 500 nM + Mito-Esc 2.5 μM, 16 h
Method: Amplex red reagent was used to detect the released H2O2 from cells. […] Immediately, formation of resorufin fluorescence was measured in multi mode reader (PerkinElmer) with λex=540 and λem=585.
Ang-II is known to increase oxidative stress through increased production of H2O2 (Doughan A K, Harrison D G, Dikalov S I. Circ Res (2008) 102:488-96). […] Further, we assessed the effect of Mito-Esc on H2O2-induced mitochondrial membrane depolarization. HAEC were treated with H2O2 (500 μM) in the presence or absence of Mito-Esc for a period of 16 h and mitochondrial membrane potential was measured using a mitochondrial membrane sensor kit. Mito-Sensor is a cationic dye that fluoresces differently in apoptotic and nonapoptotic cells. […] In apoptotic cells, membrane potentials are altered and the Mito-Sensor dye cannot accumulate in mitochondria and, thus, remain as monomers leading to a green fluorescence.

[3] = system: eNOS phosphorylation (Ser-1177); experiment: Western blot of eNOS phosphorylation in HAEC; assay type: cell-based, human; settings: 8 h
Method: To gain mechanistic insight on Mito-Esc-mediated protection of endothelial cells from oxidant-induced endothelial cell death, initially we hypothesized that Mito-Esc may augment intracellular nitric oxide generation. To study this, HAEC were treated with both Mito-Esc and esculetin in the presence or absence of H2O2 for a period of 4 h and nitric oxide (NO) levels were monitored by DAF-2 derived green fluorescence. Previously, it has been shown that DAF-2 forms a fluorescent triazole-type product in the presence of an oxidant derived from nitric oxide and oxygen interaction (Proc. Natl. Acad. Sci. USA 99: 11127-11132; 2002.; Am. J. Physiol. Regul. Integ. Comp. Physiol. 286:R344-R431; 2004). […] Next, we investigated the possible role of endothelial nitric oxide synthase (eNOS) in mediating the Mito-Esc induced NO generation in HAEC. For this, endothelial cells were treated with various concentrations of Mito-Esc (1-5 μM) for a period of 8 h. […] To further substantiate the results of DAF fluorescence, eNOS phosphorylation was measured in HAEC incubated with either with H2O2 or Ang-II for 8 h in cells pretreated with Mito-Esc or native esculetin. It was observed that both H2O2 and Ang-II caused a reduction in Phospho eNOS (Ser-1177) levels (FIG. 4D). Ang-II treatment imposed a drastic inhibition of phospho-eNOS levels when compared to H2O2 treatment in endothelial cells (FIG. 4D).

HAEC = experiment: Cellular uptake: Mito-Esc/esculetin quantified by ESI-MS in cytosolic and mitochondrial fractions of HAEC; assay type: in vitro ADME, human
Method: After the treatment, cells were washed thrice with PBS. Similarly Mito-Esculetin+ Ang-II treatment group, Ang-II alone treatment group and control Apo E^−/− mice aortic tissue was taken. The isolation of mitochondrial and cytosolic extracts was carried out using a commercially available Proteo Extract Cytosol/Mitochondria Fractionation Kit (Cat. no. QIA88-Merck, USA) according to manufacturer's instructions. Initially, mitochondrial and cytosolic fractions were separated using a commercially available kit as mentioned elsewhere. Mito-Esc was quantified in the mitochondrial and cytosolic fractions obtained from HAEC and aorta of ApoE^−/− mice of different treatment groups as mentioned in Animal Experiments section (Table-1). Electrospray ionization (ESI)-MS. ESI-MS (positive mode) measurements were performed using a quadrupole time-of-flight mass spectrometer (QSTAR XL, Applied Biosystems/MDS Sciex, Foster City, Calif., USA). The data acquisition was under the control of Analyst QS software (Applied Biosystems). For the CID (collision-induced dissociation) experiments, the precursor ions were selected using the quadrupole analyzer and the product ions were analyzed using the TOF analyzer.

[4] = system: mitochondrial content in HAEC; experiment: Mitotracker staining of mitochondrial content; settings: 2.5 μM, 8 h
Method: Mitochondrial content in cells was assessed by selectively loading the mitochondria with the red fluorescent dye Mitotracker (Invitrogen, Carlsbad, Calif.).

[5] = system: eNOS and AMPK phosphorylation; experiment: eNOS and AMPK phosphorylation in total aorta lysate of ApoE−/− mice; settings: compared to Ang-II alone or control
Method: Experiments were conducted in 2-month-old male apolipoprotein E knockout (ApoE^−/−) mice according to the guidelines formulated for care and use of animals in scientific research (ICMR, New Delhi, India) at a CPCSEA (Committee for the Purpose of Control and Supervision of Experiments on Animals) registered animal facility. […] Animals were randomly divided into 3 groups each n=7:1) control 2) Ang-II treatment and 3) Mito-Esculetin+Ang-II treatment. Ang-II and Mito-Esculetin treatment groups received Ang-II (sigma) at a dose of 1.44 mg/kg/day for 6 weeks through sub-cutaneous route where as control group received normal saline. Mito-Esculetin treatment group received the compound at a dose of 0.5 mg/kg/day in normal drinking water. […]
At the end of the treatments, HAECs were washed with ice-cold DPBS and resuspended in RIPA buffer (20 mM Tris-HCl, pH 7.4/2.5 mM EDTA/1% Triton X-100/1% sodium deoxycholate/1% SDS/100 mM NaCl/100 mM sodium fluoride) containing protease inhibitor cocktail and phosphatase inhibitor cocktail-2 and -3. […] Protein bands were detected by using HRP substrate (Millipore-luminata). […]
To further corroborate Mito-Esc's ability to protect from Ang-II-induced endothelial dysfunction during the progression of atheromatous plaque formation, we measured phospho-AMPK, AMPK, phospho-eNOS and eNOS protein levels in total aorta lysate.

[6] = system: human aortic endothelial cells (HAEC); experiment: Trypan blue cell viability assay, oxidant-induced endothelial cell death; assay type: cell-based; settings: 2.5 μM, 2 h pretreatment, H2O2 500 μM or Ang-II 500 nM, 24 h
Method: Human aortic endothelial cells (HAECs) were obtained from ATCC (Manassas, Va.) and maintained (37° C. 5% CO2) in basal medium supplemented with 10% FBS, VEGF (5 ng/mL), hEGF (5 ng/mL), hFGF (5 ng/mL), IGF-1 (15 ng/mL), ascorbic acid (50 μg/mL), hydrocortisone (1 μg/mL), amphotericin (15 ng/mL), gentamicin (30 ng/mL) and heparin (0.75 Units/mL). Cells used in this study were between passages 4 and 9. Esculetin, Mito-Esc, TPP and nitric oxide synthase inhibitor (L-NAME) were added 2 h before the addition of H2O2 or Ang-II.
At the end of the treatments, cells were harvested and re-suspended in 0.4% trypan blue (Life Technologies) and percent cell viability was counted using cell countess chamber (Life Technologies).
For this, cells were pretreated for 2 h with either Mito-Esc or esculetin before they were incubated with either H2O2 or Ang-II.

O=c1cc(CCCCCCCC[P+](c2ccccc2)(c2ccccc2)c2ccccc2)c2cc(O)c(O)cc2o1.[Br-] [Mito-Esc]
endothelial cell aging (senescence-associated β-gal staining) (HAEC aging / senescence; HAEC, 2.5 μM chronic treatment for six passages): greatly attenuated | H2O2-induced premature senescence (HAEC aging / senescence; P6 (young age) HAEC, H2O2): significantly inhibited | H2O2 and Ang-II-induced caspase-3 and -8 activation [1]: markedly resistant | Ang-II-induced H2O2 levels [2]: completely reversed H2O2 levels to control conditions | phosphorylation of eNOS at Ser-1177 ([3]; 1-5 μM): dose-dependently increased | oxidant-mediated decrease in eNOS-phosphorylation ([3]; H2O2 or Ang-II, pretreated cells): caused cells resistant to oxidant-mediated decrease | accumulation in the mitochondria compared to native esculetin (HAEC): selectively accumulated in the mitochondria | Cytosolic fraction (HAEC; HAEC, 2.5 μM, 24 h): 4488 ± 104 nmol/mg protein | Mitochondrial fraction (HAEC; HAEC, 2.5 μM, 24 h): 14523 ± 342 nmol/mg protein | mitochondrial content, treatment alone compared to control [4]: increased mitochondrial content | phosphorylation statuses of eNOS and AMPK in total aorta lysate [5]: significant increase | oxidant (H2O2 and Ang-II)-induced endothelial cell death [6]: significantly inhibited

Source: patent publication US9963476B2, “Antioxidant compound having anti atherosclerotic effect and preparation thereof” (Council of Scientific and Industrial Research, priority 2015, dated 2018)
